Literature values as cited in publication PMC8583936, “Machine Learning Assisted Approach for Finding Novel High Activity Agonists of Human Ectopic Olfactory Receptors” (International Journal of Molecular Sciences, 2021).
Like-named read-outs stand apart in the source and are kept apart here.

Legend:
OR2W1 = molecular target: T1, OR2W1 (Homo sapiens, UniProt Q9Y3N9); conditions: cited from earlier work
T1 sequence (Q9Y3N9 1-320): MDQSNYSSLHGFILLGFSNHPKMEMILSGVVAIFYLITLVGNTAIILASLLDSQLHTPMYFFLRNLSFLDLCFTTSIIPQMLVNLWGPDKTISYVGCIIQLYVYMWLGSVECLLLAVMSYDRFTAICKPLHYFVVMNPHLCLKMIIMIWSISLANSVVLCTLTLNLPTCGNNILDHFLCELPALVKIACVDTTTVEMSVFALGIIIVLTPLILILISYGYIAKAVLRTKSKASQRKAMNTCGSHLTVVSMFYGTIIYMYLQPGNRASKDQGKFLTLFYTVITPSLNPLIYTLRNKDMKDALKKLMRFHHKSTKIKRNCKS

OR1A1 = molecular target: T2, OR1A1 (Homo sapiens, UniProt Q9P1Q5); conditions: cited from earlier work
T2 sequence (Q9P1Q5 1-309): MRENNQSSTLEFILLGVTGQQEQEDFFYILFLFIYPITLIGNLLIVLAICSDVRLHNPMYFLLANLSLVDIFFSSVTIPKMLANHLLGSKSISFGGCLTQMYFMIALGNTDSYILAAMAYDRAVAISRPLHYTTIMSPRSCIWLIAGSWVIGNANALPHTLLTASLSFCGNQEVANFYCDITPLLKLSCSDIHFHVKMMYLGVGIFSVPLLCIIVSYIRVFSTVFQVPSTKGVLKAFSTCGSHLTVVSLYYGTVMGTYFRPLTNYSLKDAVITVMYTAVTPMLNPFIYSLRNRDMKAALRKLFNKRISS

[1] = Table S2, ref Supplement references [2]-[12] as printed after each odorant name
[2] = Table S1, ref Supplement references [1]-[9] as printed after each odorant name

Row | SMILES | Class (agonist / non-agonist / antagonist / conflicting info.) for OR2W1 (OR2W1; [1]) | Class (agonist / non-agonist / conflicting info.) for OR1A1 (OR1A1; [2]) | Class (agonist / non-agonist / antagonist / conflicting info.) for OR2W1 (OR2W1; Table S2, ref Supplement references [2]-[12] as printed after each odorant name, listed as Capric acid) | Class (agonist / non-agonist / antagonist / conflicting info.) for OR2W1 (OR2W1) | Class (agonist / non-agonist / conflicting info.) for OR1A1 (OR1A1)
1 | O=c1ccc2ccccc2o1 [Coumarin] | Conflicting info. | Non-agonist | – | – | –
2 | CC(C)c1ccc(C=O)cc1 [Cuminaldehyde] | Non-agonist | Non-agonist | – | – | –
3 | O=C1CCCCC1 [Cyclohexanone] | Non-agonist | Non-agonist | – | – | –
4 | C/C=C/C(=O)C1=C(C)C=CCC1(C)C [Damascenone] | Non-agonist | Non-agonist | – | – | –
5 | CCCCCCCCCC=O [Decanal] | Non-agonist | Conflicting info. | – | – | –
6 | CCCCCCCCCC(=O)O [Decanoic acid / capric acid] | – | Non-agonist | Conflicting info. | – | –
7 | CCCCCC1CCCC(=O)O1 (stereo not shown) [Delta-decalactone] | Non-agonist | Non-agonist | – | – | –
8 | CCCCCCCC1CCCC(=O)O1 (stereo not shown) [Delta-dodecalactone] | Non-agonist | Non-agonist | – | – | –
9 | CC(=O)C(C)=O [Diacetyl] | Non-agonist | Non-agonist | – | – | –
10 | CCCCCC1=C(C)CCC1=O [Dihydrojasmone] | Agonist | Agonist | – | – | –
11 | CC1(C)CC(=O)CC(=O)C1 [Dimedone] | Non-agonist | Non-agonist | – | – | –
12 | CSSC [Dimethyl disulfide] | – | – | – | Non-agonist | Conflicting info.
13 | CSC [Dimethyl sulfide] | Non-agonist | Non-agonist | – | – | –
14 | CSSSC [Dimethyl trisulfide] | Non-agonist | Non-agonist | – | – | –
15 | CCCSSSCCC [Dipropyl trisulfide] | Non-agonist | Non-agonist | – | – | –
16 | CCCCC/C=C/C=C/C=O [E,E-2,4-decadienal] | Non-agonist | Conflicting info. | – | – | –
17 | CCCC/C=C/C=C/C=O [E,E-2,4-nonadienal] | Non-agonist | Non-agonist | – | – | –
18 | CC/C=C\CC/C=C/C=O [E,Z-2,6-nonadienal] | Non-agonist | Non-agonist | – | – | –
19 | C=CCc1ccc(OC)cc1 [Estragole] | – | – | – | Agonist | Agonist
20 | CCO [Ethanol] | Non-agonist | Non-agonist | – | – | –
21 | CCOC(=O)C(C)CC (stereo not shown) [Ethyl 2-methylbutyrate] | Non-agonist | Non-agonist | – | – | –
22 | CCCC(O)CC(=O)OCC (stereo not shown) [Ethyl 3-hydroxyhexanoate] | Non-agonist | Non-agonist | – | – | –
23 | CCOC(=O)CCC(C)C [Ethyl 4-methylvalerate] | Non-agonist | Non-agonist | – | – | –
24 | CCOC(C)=O [Ethyl acetate] | Non-agonist | Non-agonist | – | – | –
25 | CCOC(=O)c1ccccc1 [Ethyl benzoate] | – | – | – | Non-agonist | Non-agonist
26 | CCCC(=O)OCC [Ethyl butyrate] | Non-agonist | Non-agonist | – | – | –
27 | CCOC(=O)/C=C/c1ccccc1 [Ethyl cinnamate] | Non-agonist | Non-agonist | – | – | –

Row | SMILES | Class (agonist / non-agonist / antagonist / conflicting info.) for OR2W1 (OR2W1; [1]) | Class (agonist / non-agonist / conflicting info.) for OR1A1 (OR1A1; [2]) | Class (agonist / non-agonist / antagonist / conflicting info.) for OR2W1 (OR2W1; Table S2, ref Supplement references [2]-[12] as printed after each odorant name, listed as Capric acid) | Class (agonist / non-agonist / antagonist / conflicting info.) for OR2W1 (OR2W1) | Class (agonist / non-agonist / conflicting info.) for OR1A1 (OR1A1)
28 | CCOC(=O)C1CCCCC1 [Ethyl cyclohexanecarboxylate] | Agonist | Agonist | – | – | –
29 | CCCCCCCCCC(=O)OCC [Ethyl decanoate] | – | – | – | Non-agonist | Non-agonist
30 | CCCCCC(=O)OCC [Ethyl hexanoate] | Non-agonist | Agonist | – | – | –
31 | CCOC(=O)C(C)C [Ethyl isobutyrate] | Non-agonist | Non-agonist | – | – | –
32 | CCOC(=O)CC(C)C [Ethyl isovalerate] | Non-agonist | Non-agonist | – | – | –
33 | CCCCCCCC(=O)OCC [Ethyl octanoate] | – | – | – | Non-agonist | Non-agonist
34 | CCCCC(=O)OCC [Ethyl pentanoate] | – | – | – | Non-agonist | Non-agonist
35 | CCOC(=O)C(C)=O [Ethyl pyruvate] | Non-agonist | Non-agonist | – | – | –
36 | CCOc1cc(C=O)ccc1O [Ethyl vanillin] | Conflicting info. | Conflicting info. | – | – | –
37 | C=CC(=O)CC [Ethyl vinyl ketone] | Non-agonist | Non-agonist | – | – | –
38 | O=C1CCCCCCCCCCCC(=O)OCCO1 [Ethylene brassylate] | Antagonist | Conflicting info. | – | – | –
39 | CCOC(=O)Cc1ccccc1 [Ethylphenyl acetate] | – | – | – | Non-agonist | Agonist
40 | C=CCc1ccc(OC)c(OC)c1 [Eugenol methyl ether] | Non-agonist | Conflicting info. | – | – | –
41 | C=CCc1ccc(O)c(OC)c1 [Eugenol] | – | – | – | Conflicting info. | Conflicting info.
42 | C=CCc1ccc(OC(C)=O)c(OC)c1 [Eugenyl acetate] | Agonist | Non-agonist | – | – | –
43 | C/C=C/C(=O)C(C)CC (stereo not shown) [Filbertone] | Non-agonist | Non-agonist | – | – | –
44 | CC1=C(O)C(=O)C(C)O1 (stereo not shown) [Furaneol] | Non-agonist | Non-agonist | – | – | –
45 | SCc1ccco1 [Furfurylthiol] | Non-agonist | Non-agonist | – | – | –
46 | CCCCCCCC1CCC(=O)O1 (stereo not shown) [Gamma-undecalactone] | – | – | – | Non-agonist | Non-agonist
47 | CC(C)=CCC/C(C)=C/CO [Geraniol] | Conflicting info. | Conflicting info. | – | – | –
48 | CC(=O)OC/C=C(\C)CCC=C(C)C [Geranyl acetate] | Conflicting info. | Conflicting info. | – | – | –
49 | COc1ccccc1O [Guaiacol] | Non-agonist | Non-agonist | – | – | –
50 | CC(C=O)Cc1ccc2c(c1)OCO2 (stereo not shown) [Helional] | – | – | – | Agonist | Agonist
51 | CCCCCCC=O [Heptanal] | Agonist | Conflicting info. | – | – | –
52 | CCCCCCC(=O)O [Heptanoic acid] | Non-agonist | Non-agonist | – | – | –
53 | CCCCCCCO [Heptanol] | Agonist | Conflicting info. | – | – | –
